# According to PubChem BioAssay (NCI):
#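 1) Cells in 96-well plates. 2) Compound, 48 h, 5 concentrations. 3) Linear interpolation between surrounding doses. 4) Unreached endpoint = highest concentration. TGI is the concentration that stops growth completely.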
# Key:
# Assay in all cases: NCI tumour cell line growth inhibition, 48 h
# [1] = tested on: OVCAR-8 ovarian
# [2] = tested on: PC-3 prostate
# [3] = tested on: SNB-19 CNS
# [4] = tested on: OVCAR-3 ovarian
# [5] = tested on: SK-MEL-5 melanoma
# [6] = tested on: HOP-92 NSCLC
# [7] = tested on: EKVX NSCLC
# [8] = tested on: MDA-MB-435
# [9] = tested on: MCF7 breast
# [10] = tested on: HT29 colon
# [11] = tested on: NCI-H23 lung
# [12] = tested on: SF-295 CNS
# [13] = tested on: RXF 393 renal
# [14] = tested on: K-562 leukemia
# [15] = tested on: M14 melanoma
# [16] = tested on: NCI-H226 lung
# [17] = tested on: BT-549 breast
# [18] = tested on: RPMI-8226 leukemia
# [19] = tested on: SK-MEL-2 melanoma
# [20] = tested on: TK-10 renal
# [21] = tested on: UO-31 renal
# [22] = tested on: SK-MEL-28 melanoma
# [23] = tested on: T-47D breast
# [24] = tested on: UACC-62 melanoma
# [25] = tested on: HCT-116 colon
# [26] = tested on: ACHN renal
# [27] = tested on: CAKI-1 renal
# [28] = tested on: NCI-H460 lung
# [29] = tested on: SK-OV-3 ovarian
# [30] = tested on: U251 CNS
# [31] = tested on: A498 renal
# [32] = tested on: COLO 205 colon
# [33] = tested on: SN12C renal
# [34] = tested on: MOLT-4 leukemia
# [35] = tested on: NCI-H522 lung
# [36] = tested on: IGROV1 ovarian
# [37] = tested on: CCRF-CEM leukemia
# [38] = tested on: SF-268 CNS
# [39] = tested on: MDA-N
# [40] = tested on: OVCAR-4 ovarian
# [41] = tested on: UACC-257 melanoma
# [42] = tested on: DU-145 prostate
# [43] = tested on: MALME-3M melanoma
# [44] = tested on: KM12 colon
# [45] = tested on: NCI/ADR-RES ovarian
# [46] = tested on: HCC-2998 colon
# [47] = tested on: SF-539 CNS
# [48] = tested on: 786-0 renal
# [49] = tested on: HCT-15 colon
# [50] = tested on: HS 578T breast
# [51] = tested on: HL-60(TB) leukemia
# [52] = tested on: MDA-MB-231 breast
# [53] = tested on: A549 NSCLC
# [54] = tested on: SR leukemia
# [55] = tested on: OVCAR-5 ovarian
# [56] = tested on: HOP-62 NSCLC
# [57] = tested on: SNB-75 CNS
# [58] = tested on: LOX IMVI melanoma
# [59] = tested on: SW-620 colon
smiles,measurement,setting,value
COC(=O)c1c(O)ccc2c1c1cc3ccccc3c(O)c1n2Cc1ccccc1Cl,TGI,[1],> 100 µM
same,TGI,[2],> 100 µM
same,TGI,[3],> 100 µM
same,TGI,[4],39.8 µM
same,TGI,[5],56.2 µM
same,TGI,[6],91.7 µM
same,TGI,[7],87.1 µM
same,TGI,[8],40.3 µM
same,TGI,[9],> 100 µM
same,TGI,[10],25 µM
same,TGI,[11],46.2 µM
same,TGI,[12],40.3 µM
same,TGI,[13],> 100 µM
same,TGI,[14],> 100 µM
same,TGI,[15],59.1 µM
same,TGI,[16],> 100 µM
same,TGI,[17],91.7 µM
same,TGI,[18],70 µM
same,TGI,[19],40.7 µM
same,TGI,[20],> 100 µM
same,TGI,[21],64.1 µM
same,TGI,[22],46.4 µM
same,TGI,[23],60.7 µM
same,TGI,[24],65.4 µM
same,TGI,[25],28 µM
same,TGI,[26],95.7 µM
same,TGI,[27],61.9 µM
same,TGI,[28],78.4 µM
same,TGI,[29],48.6 µM
same,TGI,[30],> 100 µM
same,TGI,[31],> 100 µM
same,TGI,[32],30.4 µM
same,TGI,[33],> 100 µM
same,TGI,[34],> 100 µM
same,TGI,[35],29.5 µM
same,TGI,[36],44.8 µM
same,TGI,[37],> 100 µM
same,TGI,[38],97.7 µM
same,TGI,[39],61.8 µM
same,TGI,[40],51.1 µM
same,TGI,[41],> 100 µM
same,TGI,[42],> 100 µM
same,TGI,[43],74.7 µM
same,TGI,[44],61.8 µM
same,TGI,[45],64.3 µM
same,TGI,[46],47.7 µM
same,TGI,[47],33.7 µM
same,TGI,[48],54.1 µM
same,TGI,[49],77.1 µM
same,TGI,[50],84.4 µM
same,TGI,[51],74.9 µM
same,TGI,[52],> 100 µM
same,TGI,[53],> 100 µM
same,TGI,[54],> 100 µM
same,TGI,[55],> 100 µM
same,TGI,[56],59.3 µM
O=C(CC(O)c1cccnc1)CC(O)c1cccnc1 (stereo not drawn),TGI,[1],35.7 µM
same,TGI,[2],42.9 µM
same,TGI,[3],55.4 µM
same,TGI,[4],28.1 µM
same,TGI,[57],35.4 µM
same,TGI,[5],32.2 µM
same,TGI,[6],34.5 µM
same,TGI,[7],43.8 µM
same,TGI,[8],55.3 µM
same,TGI,[9],20 µM
same,TGI,[10],20.7 µM
same,TGI,[11],52 µM
same,TGI,[12],30.7 µM
same,TGI,[13],32.1 µM
same,TGI,[14],> 51.5 µM
same,TGI,[15],27.8 µM
same,TGI,[16],> 100 µM
same,TGI,[17],25.6 µM
same,TGI,[18],> 100 µM
same,TGI,[19],37 µM
same,TGI,[58],15.4 µM
same,TGI,[20],> 100 µM
same,TGI,[21],32.5 µM
same,TGI,[22],44.2 µM
same,TGI,[23],> 73.5 µM
same,TGI,[24],32.2 µM
same,TGI,[25],4.33 µM
same,TGI,[26],35.3 µM
same,TGI,[27],35.9 µM
same,TGI,[28],35.9 µM
same,TGI,[29],32.6 µM
same,TGI,[30],33 µM
same,TGI,[59],19.6 µM
same,TGI,[31],30.6 µM
same,TGI,[32],29 µM
same,TGI,[33],38.8 µM
same,TGI,[34],> 52.1 µM
same,TGI,[35],32.1 µM
same,TGI,[36],29.9 µM
same,TGI,[37],20.9 µM
same,TGI,[38],> 95.9 µM
same,TGI,[39],25.5 µM
same,TGI,[40],40.9 µM
same,TGI,[41],36.1 µM
same,TGI,[42],> 89.7 µM
same,TGI,[43],39.9 µM
same,TGI,[44],26.7 µM
same,TGI,[45],> 66.1 µM
same,TGI,[46],28.6 µM
same,TGI,[47],53.8 µM
same,TGI,[48],39.2 µM
same,TGI,[49],29.6 µM
same,TGI,[50],> 100 µM
same,TGI,[51],> 100 µM
same,TGI,[52],29.9 µM
same,TGI,[53],47.7 µM
same,TGI,[54],> 100 µM
same,TGI,[55],54 µM
same,TGI,[56],50.8 µM
CC(=O)N(C(=O)CC(=O)NNCc1ccccc1Cl)c1ccc(Cl)cc1,TGI,[1],> 10 µM
same,TGI,[2],> 10 µM
same,TGI,[3],> 10 µM
same,TGI,[4],> 10 µM
same,TGI,[57],> 10 µM
same,TGI,[5],> 10 µM
same,TGI,[6],> 10 µM
same,TGI,[7],> 10 µM
same,TGI,[8],> 10 µM
same,TGI,[9],> 10 µM
same,TGI,[10],> 10 µM
same,TGI,[11],> 10 µM
same,TGI,[12],> 10 µM
same,TGI,[13],> 10 µM
same,TGI,[14],> 10 µM
same,TGI,[15],> 10 µM
same,TGI,[16],> 10 µM
same,TGI,[17],> 10 µM
same,TGI,[18],> 10 µM
same,TGI,[19],> 10 µM
same,TGI,[58],> 10 µM
same,TGI,[20],> 10 µM
same,TGI,[21],> 10 µM
same,TGI,[22],> 10 µM
same,TGI,[23],> 10 µM
same,TGI,[24],> 10 µM
same,TGI,[25],> 10 µM
same,TGI,[26],> 10 µM
same,TGI,[27],> 10 µM
same,TGI,[28],> 10 µM
same,TGI,[29],> 10 µM
same,TGI,[30],> 10 µM
same,TGI,[31],> 10 µM
same,TGI,[32],> 10 µM
same,TGI,[33],> 10 µM
same,TGI,[34],> 10 µM
same,TGI,[35],> 10 µM
same,TGI,[36],> 10 µM
same,TGI,[37],> 10 µM
same,TGI,[38],> 10 µM
same,TGI,[39],> 10 µM
same,TGI,[40],> 10 µM
same,TGI,[41],> 10 µM
same,TGI,[42],> 10 µM
same,TGI,[43],> 10 µM
same,TGI,[44],> 10 µM
same,TGI,[45],> 10 µM
same,TGI,[46],> 10 µM
same,TGI,[47],> 10 µM
same,TGI,[48],> 10 µM
same,TGI,[49],> 10 µM
same,TGI,[50],> 10 µM
same,TGI,[51],> 10 µM
same,TGI,[52],> 10 µM
same,TGI,[53],> 10 µM
same,TGI,[54],> 10 µM
same,TGI,[55],> 10 µM
same,TGI,[56],> 10 µM
